Molecular target: T1, hCRTH2 (Homo sapiens, UniProt Q9Y5Y4)
T1 construct: expressed in transfected cells; host or cells: HEK cell line expressing hCRTH2 (HEK-hCRTH2); membranes
T1 sequence (Q9Y5Y4 1-395): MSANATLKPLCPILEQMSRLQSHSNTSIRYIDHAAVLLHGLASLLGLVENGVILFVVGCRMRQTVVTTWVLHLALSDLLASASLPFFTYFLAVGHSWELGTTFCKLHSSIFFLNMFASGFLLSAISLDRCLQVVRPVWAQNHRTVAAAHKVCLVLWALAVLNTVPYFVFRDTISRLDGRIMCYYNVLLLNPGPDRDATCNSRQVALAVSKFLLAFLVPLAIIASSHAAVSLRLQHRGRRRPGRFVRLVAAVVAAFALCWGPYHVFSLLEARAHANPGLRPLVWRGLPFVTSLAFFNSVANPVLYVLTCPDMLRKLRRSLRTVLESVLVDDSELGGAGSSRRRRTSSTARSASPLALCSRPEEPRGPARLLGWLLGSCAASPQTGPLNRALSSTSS
Experiment: Radioligand binding assay ([3H]PGD2 competition, membranes from HEK-hCRTH2 cell line)
Conditions: 0.7 nM [3H]PGD2, membrane protein from HEK-hCRTH2 cell line, 60 min at room temperature; values given as ranges
Description: Radioligand Binding Assay.
Radioligand binding assays were performed at room temperature in 10 mM HEPES/KOH pH 7.4, 1 mM EDTA containing 10 mM MnCl2 and 0.7 nM [^3H]PGD2 (NEN, 171 Ci mmol^−1), in a final volume of 0.2 ml. Competing ligands were diluted in dimethylsulfoxide (Me2SO) that was kept constant at 1% (v/v) of the final incubation volume. The reaction was initiated by the addition of 8-20 μg of membrane protein prepared from a HEK-hCRTH2 cell line. Total and non-specific binding were determined in the absence and the presence of 10 μM PGD2, respectively. Under these conditions, specific binding (total minus non-specific) of the radioligand to the receptor reached equilibrium within 50 min and was stable up to 180 min. The reaction was routinely conducted for 60 min at room temperature and terminated by rapid filtration through prewetted Unifilters GF/C (Packard), using a Tomtec MachIII semi-automated harvester (for HEK-hCRTH2). The filters were then washed with 4 ml of the same buffer and residual radioligand bound to the filter was determined by liquid scintillation counting following equilibration in 25 μl Ultima Gold F™ (Unifilter) (Packard). The Ki (in nM) values for representative compounds of the present invention are as follows: ≦5: Examples 3.1, 5.1, 6.1, 7.1, 8.1/8A, 9.1, 26, 27.1, 28.1, 29.1, 30, 31.1, 31.3, 32.1, 32.4, 33.1, 34.1, 36.1, 38.1, 39, 40, 41; >5 and ≦10: Examples, 4, 5.3, 29.2; >10 and ≦50: Examples 1, 10, 14, 21, 22, 25, 31.4, 32.3, 35, 36.2, 37; >50 and ≦100: Examples 2, 5.4, 6.2, 27.2, 28.2; >100: Examples 3.2, 5.2, 7.2, 8.2, 9.2, 11, 12, 13, 15, 16, 17, 18, 19, 20, 23, 24, 31.2, 32.2, 33.2, 34.2, 38.2.

Ki	Structure (SMILES)
10 to 50 nM	Cc1c(Cc2ccc(F)cc2)nnn1C1CCc2c(CC(=O)O)c3cccc(F)c3n2C1 (racemic) [Example 37, {4-Fluoro-7-[4-(4-fluorobenzyl)-5-methyl-1H-1,2,3-triazol-1-yl]-6,7,8,9-tetrahydropyrido[1,2-α]indol-10-yl}acetic acid]
≤ 5 nM	O=C(O)Cc1c2n(c3ccccc13)CC(n1nncc1Cc1ccccc1)CC2 (single isomer, unassigned) [Example 3.1, [7-(5-Benzyl-[1,2,3]triazol-1-yl)-6,7,8,9-tetrahydropyrido[1,2-α]indol-10-yl]-acetic acid]
> 100 nM	O=C(O)Cc1c2n(c3ccccc13)CC(n1nncc1Cc1ccccc1)CC2 (single isomer, unassigned) [Example 3.2, [7-(5-Benzyl-[1,2,3]triazol-1-yl)-6,7,8,9-tetrahydropyrido[1,2-α]indol-10-yl]-acetic acid]
≤ 5 nM	CC(O)(c1ccc(F)cc1)c1cnnn1C1CCc2c(CC(=O)O)c3ccccc3n2C1 (single isomer, unassigned) [Example 5.1, (7-{5-[1-(4-Fluoro-phenyl)-1-hydroxy-ethyl]-[1,2,3]triazol-1-yl}-6,7,8,9-tetrahydropyrido[1,2-α]indol-10-yl)-acetic acid]
> 100 nM	CC(O)(c1ccc(F)cc1)c1cnnn1C1CCc2c(CC(=O)O)c3ccccc3n2C1 (single isomer, unassigned) [Example 5.2, (7-{5-[1-(4-Fluoro-phenyl)-1-hydroxy-ethyl]-[1,2,3]triazol-1-yl}-6,7,8,9-tetrahydropyrido[1,2-α]indol-10-yl)-acetic acid]
5 to 10 nM	CC(O)(c1ccc(F)cc1)c1cnnn1C1CCc2c(CC(=O)O)c3ccccc3n2C1 (single isomer, unassigned) [Example 5.3, (7-{5-[1-(4-Fluoro-phenyl)-1-hydroxy-ethyl]-[1,2,3]triazol-1-yl}-6,7,8,9-tetrahydropyrido[1,2-α]indol-10-yl)-acetic acid]
50 to 100 nM	CC(O)(c1ccc(F)cc1)c1cnnn1C1CCc2c(CC(=O)O)c3ccccc3n2C1 (single isomer, unassigned) [Example 5.4, (7-{5-[1-(4-Fluoro-phenyl)-1-hydroxy-ethyl]-[1,2,3]triazol-1-yl}-6,7,8,9-tetrahydropyrido[1,2-α]indol-10-yl)-acetic acid]
≤ 5 nM	O=C(O)Cc1c2n(c3ccccc13)CC(n1nncc1C1(c3ccccc3)CCCC1)CC2 (single isomer, unassigned) [Example 6.1, {7-[5-(1-Phenyl-cyclopentyl)-[1,2,3]triazol-1-yl]-6,7,8,9-tetrahydropyrido[1,2-α]indol-10-yl}-acetic acid]
50 to 100 nM	O=C(O)Cc1c2n(c3ccccc13)CC(n1nncc1C1(c3ccccc3)CCCC1)CC2 (single isomer, unassigned) [Example 6.2, {7-[5-(1-Phenyl-cyclopentyl)-[1,2,3]triazol-1-yl]-6,7,8,9-tetrahydropyrido[1,2-α]indol-10-yl}-acetic acid]
≤ 5 nM	O=C(O)Cc1c2n(c3c(F)cccc13)CC(n1nncc1Cc1ccccc1)CC2 (single isomer, unassigned) [Example 7.1, [7-(5-Benzyl-[1,2,3]triazol-1-yl)-4-fluoro-6,7,8,9-tetrahydropyrido[1,2-α]indol-10-yl]-acetic acid]
> 100 nM	O=C(O)Cc1c2n(c3c(F)cccc13)CC(n1nncc1Cc1ccccc1)CC2 (single isomer, unassigned) [Example 7.2, [7-(5-Benzyl-[1,2,3]triazol-1-yl)-4-fluoro-6,7,8,9-tetrahydropyrido[1,2-α]indol-10-yl]-acetic acid]
> 100 nM	O=C(O)Cc1c2n(c3c(F)cccc13)CC(n1nncc1Cc1ccc(F)cc1)CC2 (single isomer, unassigned) [Example 8.2, {4-Fluoro-7-[5-(4-fluoro-benzyl)-[1,2,3]triazol-1-yl]-6,7,8,9-tetrahydropyrido[1,2-α]indol-10-yl}-acetic acid]
≤ 5 nM	O=C(O)Cn1c2c(c3ccccc31)CC(n1nncc1Cc1ccccc1)CC2 (single isomer, unassigned) [Example 9.1, [3-(5-Benzyl-[1,2,3]triazol-1-yl)-1,2,3,4-tetrahydro-carbazol-9-yl]-acetic acid]
> 100 nM	O=C(O)Cn1c2c(c3ccccc31)CC(n1nncc1Cc1ccccc1)CC2 (single isomer, unassigned) [Example 9.2, [3-(5-Benzyl-[1,2,3]triazol-1-yl)-1,2,3,4-tetrahydro-carbazol-9-yl]-acetic acid]
≤ 5 nM	O=C(O)Cc1c2n(c3ccccc13)CC(n1nncc1C(O)(c1ccc(F)cc1)c1ccc(F)cc1)CC2 (single isomer, unassigned) [Example 27.1]
50 to 100 nM	O=C(O)Cc1c2n(c3ccccc13)CC(n1nncc1C(O)(c1ccc(F)cc1)c1ccc(F)cc1)CC2 (single isomer, unassigned) [Example 27.2]
≤ 5 nM	O=C(O)Cc1c2n(c3ccccc13)CC(n1nncc1Cc1ccc(F)cc1)CC2 (single isomer, unassigned) [Example 28.1]
50 to 100 nM	O=C(O)Cc1c2n(c3ccccc13)CC(n1nncc1Cc1ccc(F)cc1)CC2 (single isomer, unassigned) [Example 28.2]
≤ 5 nM	CC(c1ccccc1)c1cnnn1C1CCc2c(CC(=O)O)c3ccccc3n2C1 (single isomer, unassigned) [Example 29.1]
5 to 10 nM	CC(c1ccccc1)c1cnnn1[C@@H]1CCc2c(CC(=O)O)c3ccccc3n2C1 (single isomer, unassigned) [Example 29.2]
≤ 5 nM	CC(O)(c1ccc(F)cc1)c1cnnn1C1CCc2c(CC(=O)O)c3cccc(F)c3n2C1 (single isomer, unassigned) [Example 31.1]
> 100 nM	CC(O)(c1ccc(F)cc1)c1cnnn1C1CCc2c(CC(=O)O)c3cccc(F)c3n2C1 (single isomer, unassigned) [Example 31.2]
≤ 5 nM	CC(O)(c1ccc(F)cc1)c1cnnn1C1CCc2c(CC(=O)O)c3cccc(F)c3n2C1 (single isomer, unassigned) [Example 31.3]
10 to 50 nM	CC(O)(c1ccc(F)cc1)c1cnnn1C1CCc2c(CC(=O)O)c3cccc(F)c3n2C1 (single isomer, unassigned) [Example 31.4]
≤ 5 nM	CC(c1ccccc1)c1cnnn1C1CCc2c(CC(=O)O)c3cccc(F)c3n2C1 (single isomer, unassigned) [Example 32.1, {4-Fluoro-7-[5-(1-phenyl-ethyl)-[1,2,3]triazol-1-yl]-6,7,8,9-tetrahydropyrido[1,2-α]indol-10-yl}-acetic acid]
> 100 nM	CC(c1ccccc1)c1cnnn1C1CCc2c(CC(=O)O)c3cccc(F)c3n2C1 (single isomer, unassigned) [Example 32.2, {4-Fluoro-7-[5-(1-phenyl-ethyl)-[1,2,3]triazol-1-yl]-6,7,8,9-tetrahydropyrido[1,2-α]indol-10-yl}-acetic acid]
10 to 50 nM	CC(c1ccccc1)c1cnnn1C1CCc2c(CC(=O)O)c3cccc(F)c3n2C1 (single isomer, unassigned) [Example 32.3, {4-Fluoro-7-[5-(1-phenyl-ethyl)-[1,2,3]triazol-1-yl]-6,7,8,9-tetrahydropyrido[1,2-α]indol-10-yl}-acetic acid]
≤ 5 nM	CC(c1ccccc1)c1cnnn1C1CCc2c(CC(=O)O)c3cccc(F)c3n2C1 (single isomer, unassigned) [Example 32.4, {4-Fluoro-7-[5-(1-phenyl-ethyl)-[1,2,3]triazol-1-yl]-6,7,8,9-tetrahydropyrido[1,2-α]indol-10-yl}-acetic acid]
≤ 5 nM	O=C(O)Cc1c2n(c3c(F)cccc13)CC(n1nncc1Cc1ccc(F)c(F)c1)CC2 (single isomer, unassigned) [Example 33.1, {7-[5-(3,4-difluorobenzyl)-1H-1,2,3-triazol-1-yl]-4-fluoro-6,7,8,9-tetrahydropyrido[1,2-a]-indol-10-yl}acetic acid]

From patent US9023864B2, “Indole derivatives as CRTH2 receptor antagonists” (Merck Sharp & Dohme Corp., priority 2009, dated 2015)
